{
  "source": "patent US20250179028A1",
  "about": "“ACRYLAMIDE COMPOUNDS” (NRG THERAPEUTICS LTD, priority 2022, published 2025)",
  "key": {"mPTP [1]": {"test_system": "mPTP", "test": "mPTP mitochondria membrane potential flow cytometry assay in stimulated human platelets", "assay_type": "cell-based", "procedure": "The mPTP cell based assay was performed using a mitochondria membrane potential flow cytometry assay in stimulated human platelets. Simulation of platelets results in the rapid influx of Ca^2+ across the platelet membrane. The Ca^2+ is then sequestered by mitochondria until the threshold for mPTP opening is reached, at which point the pore opens and the mitochondrial membrane potential is dissipated. Changes in mitochondria membrane potential due to mPTP opening can be quantified in live platelets using standard mitochondrial membrane potential dyes e.g. 3,3′-dihexyloxacarbocyanine Iodide; DiOC6(3), enabling pharmacological characterisation of mPTP inhibitors.\nFresh human blood (20 ml) was collected from consenting donors into 3.2% sodium citrate. Platelets were isolated by centrifugation at 200 g for 20 min at room temperature, then the platelet rich plasma layer transferred to a fresh tube. Prostaglandin 12 is added to the platelets at a final concentration of 20 ng/ml. After centrifugation at 640 g for 10 min, the platelet rich pellet was resuspended in 4 ml HEPES assay buffer (137 mM NaCl, 2.7 mM KCl, 11.9 mM NaHCO3, 0.42 mM NaH2PO4, 1 mM MgCl2, 5.5 mM glucose, 0.1% bovine serum albumin, 10 mM HEPES adjusted to pH 7.4) and stored on ice.\nTest compounds were prepared from 10 mM stocks in DMSO and serially diluted in assay buffer containing 0.4% DMSO and 25 μl transferred into a 96 well plate. Platelets were loaded with the mitochondrial membrane potential dye DiOC6(3) (3,3′-dihexyloxacarbocyanine Iodide; Invitrogen) at 200 nM for 30 min, then 50 μl plated into each well of the 96 well plate containing diluted test compound and incubated for 15 min. Control wells included DMSO (0.1% final concentration) only or 5 μM cyclosporin A. Platelets were then stimulation with the addition of assay buffer (25 μl) containing CaCl2, alpha thrombin and Convulxin to achieve a final concentrations of 2 mM, 0.017 U/ml and 0.167 μg/ml respectively and incubated for 14 min. The reaction was stopped by the addition of 25 μl 15 mM EDTA in assay buffer. The mitochondrial membrane potential across the population of platelets in each well was then quantified by flow cytometry using a Guava easyCyte 5 Benchtop Flow Cytometer with 3000 events per well. The percentage of platelets with a depolarised mitochondrial membrane potential was calculated for each well. A pIC50 for each compound was then calculated using a standard four parameter curve fit model (GraphPad Prism)."}, "mPTP [2]": {"test_system": "mPTP", "test": "mPTP activity assay in isolated rat brain mitochondria", "assay_type": "biochemical", "settings": "isolated rat brain mitochondria", "procedure": "mPTP activity was measured in brain mitochondria freshly isolated from female Sprague Dawley (250 to 300 gram) rats. Anaesthetised rats were perfused in-situ with ˜40 ml cold Dulbecco's Phosphate Buffered Saline (DPBS), then brains dissected and transferred into 30 ml Isolation Buffer (225 mM mannitol, 75 mM sucrose, 1 mM EGTA, adjusted to pH 7.4 with 1 M NaOH). The brain was minced using tweezers and a scalpel into ˜5 mm pieces then transferred into a 50 ml Potterton Dounce homogenization tube on ice containing 10 ml ice-cold isolation buffer (as above with addition of Complete Protease inhibitor; 1 tablet per 50 ml buffer).\nHomogenisation was carried out using a […] pestle at 1800 rpm. The slurry was centrifuged at 2000 g for 10 min at 4° C., then the supernatant centrifuged at 12,000 g for 9 min. The pellet was resuspended with a dounce homogeniser in isolation buffer as above but with the addition of 0.02% digitonin, centrifuged at 12,000 g for 11 min and finally resuspended in 5 ml modified isolation buffer (as above but with EGTA reduced to 0.1 mM).\nTest compounds were prepared in 384 well polypropylene assay plates as described above for the liver mitochondria assay. A stock mitochondria/Fluo5N assay solution was prepared in 5.6 ml assay buffer (120 mM mannitol, 40 mM MOPS, 5 mM KH2PO4, 60 mM KCl, 10 mM pyruvate, 2 mM malate, 2 mM MgCl2, 20 μM ADP, 1.26 μM oligomycin A, adjusted to pH 7.4) supplemented with Fluo5N pentapotassium salt (2 μM) and 1 ml mitochondria suspension, then transferred (15 μl) into the assay plate containing test compounds and incubated for 10 min at RT. Assay plates were then transferred to a FLIPR Tetra plate reader (Molecular Devices). Dye fluorescence was then measured every 3 sec for a total of 10 min. After 12 sec, a 2.5 μl bolus of Ca2+ (75 μM) was added from a source plate containing 675 μM CaCl2) in FLIPR assay buffer. IC50 values for test compounds were calculated using the fluorescence value collected at the 10 min timepoint with % inhibition calculated using the DMSO control and cyclosporin A values at […]."}},
  "note": "Marks after values point to notes of the source that are not given here.",
  "data": [
    {"smiles": "Cc1c(F)cccc1NC(=O)/C=C/c1ccc2cn[nH]c2c1", "note": "[Comparative Example 1, (E)-N-(2-methyl-3-fluorophenyl)-3-(1H-indazol-6-yl)acrylamide, reference compound]", "values": [
      {"measurement": "mPTP Human Platelets pIC50", "setting": "mPTP [1]", "value": 6.9},
      {"measurement": "mPTP Rat brain pIC50", "setting": "mPTP [2]", "value": 7.6},
      {"measurement": "mPTP Rat brain pIC50", "setting": "mPTP [2]; average value from a larger number of experiments", "value": "7.5***"}
    ]},
    {"smiles": "Cc1c(F)cccc1NC(=O)/C=C/c1ccc2oc(=O)[nH]c2c1", "note": "[Example 6, (E)-N-(3-fluoro-2-methylphenyl)-3-(2-oxo-2,3-dihydrobenzo[d]oxazol-5-yl)acrylamide]", "values": [
      {"measurement": "mPTP Human Platelets pIC50", "setting": "mPTP [1]", "value": 7.0}
    ]},
    {"smiles": "Cc1c(F)cccc1NC(=O)/C=C/c1ccc2c(c1)[nH]c(=O)n2C", "note": "[Example 7, (E)-N-(3-fluoro-2-methylphenyl)-3-(1-methyl-2-oxo-2,3-dihydro-1H-benzo[d]imidazol-5-yl)acrylamide]", "values": [
      {"measurement": "mPTP Human Platelets pIC50", "setting": "mPTP [1]", "value": 7.2},
      {"measurement": "mPTP Rat brain pIC50", "setting": "mPTP [2]", "value": 6.9}
    ]},
    {"smiles": "Cc1c(F)cccc1NC(=O)/C=C/c1ccc2c(c1)NC(=O)C2", "note": "[Example 10, (E)-N-(3-fluoro-2-methylphenyl)-3-(2-oxoindolin-6-yl)acrylamide]", "values": [
      {"measurement": "mPTP Human Platelets pIC50", "setting": "mPTP [1]", "value": 7.0},
      {"measurement": "mPTP Rat brain pIC50", "setting": "mPTP [2]", "value": 6.5}
    ]},
    {"smiles": "Cc1ccc(F)c(C)c1NC(=O)/C=C/c1ccc2c(c1)[nH]c(=O)n2C", "note": "[Example 30, (E)-N-(3-fluoro-2,6-dimethylphenyl)-3-(1-methyl-2-oxo-2,3-dihydro-1H-benzo[d]imidazol-5-yl)acrylamide]", "values": [
      {"measurement": "mPTP Rat brain pIC50", "setting": "mPTP [2]", "value": 7.6}
    ]},
    {"smiles": "CO[C@H]1Cc2ccccc2[C@@H]1NC(=O)/C=C/c1ccc2c(C)n[nH]c2c1", "note": "[Example 54, (E)-N-((1S,2S)-2-methoxy-2,3-dihydro-1H-inden-1-yl)-3-(3-methyl-1H-indazol-6-yl)acrylamide]", "values": [
      {"measurement": "mPTP Rat brain pIC50", "setting": "mPTP [2]", "value": 7.7}
    ]},
    {"smiles": "CO[C@H]1Cc2ccccc2[C@@H]1NC(=O)/C=C/c1ccc2c(F)n[nH]c2c1", "note": "[Example 73, (E)-3-(3-fluoro-1H-indazol-6-yl)-N-((1S,2S)-2-methoxy-2,3-dihydro-1H-Inden-1-yl)acrylamide]", "values": [
      {"measurement": "mPTP Rat brain pIC50", "setting": "mPTP [2]", "value": 7.7}
    ]}
  ]
}
